In patent US10780061B2, “Composition comprising farnesol and use thereof” (Daegu Gyongbuk Institute of Science and Technology, priority 2014, dated 2020):

Assays:
[1] = Fat mass ratio by dual-energy X-ray absorptiometry; format: in vivo; conditions: old mouse, farnesol diet 4 months
Method: 22-month-old female mice (weighing 30 g) are fed with a control diet and a farnesol diet for 4 months. That is, 22-month-old mice are fed for 4 months, and then 26-month-old mice are analyzed. […] The same mouse is used as a control group, except that it is fed with a diet containing no farnesol. Muscle strength, energy expenditure, glucose tolerance, and fat accumulation of each mouse are evaluated.
The fat mass ratio is determined by dual-energy X-ray absorptiometry (LUNA PIXIMUS, GE Healthcare/LUNA), and measured on combined images after radiation at 40 kV X-ray and 80 kV X-ray four times, respectively.

C2C12 myoblasts = assay: Immunoblot of PGC-1α and differentiation markers in farnesol-treated myoblasts; format: cell-based
Method: DMEM (Dulbecco's Modified Eagle Medium) supplemented with 10% fetal bovine serum is used as a growth medium for culture of C2C12 myoblasts, and DMEM supplemented with 2% horse serum is used as a differentiation medium for differentiation of muscle cells. To induce differentiation of C2C12 myoblasts into muscle cells, 0.1 μM farnesol dissolved in DMSO or various concentrations of farnesol (0.1, 1, 10, 100 uM) are added, and DMSO is only added to a control group. The cells are cultured for 48 hours to induce differentiation, and then a lysis buffer (20 mM Tris-HCl, pH 8, 150 mM NaCl, 1% Triton X, Proteinase Inhibitor) is added to the harvested cells to allow lysis for 30 minutes, followed by centrifugation at 13,000 rpm for 30 minutes. The amount of protein in the cell lysis sample is quantified and an equal amount of protein is subjected to 8% SDS-PAGE. The protein is transferred onto a PVDF membrane, and then incubated in a blocking buffer containing 5% skim milk for 1 hour. HRP (horseradish peroxidase)-conjugated rabbit antibodies specific to individual proteins, diluted in 5% BSA, are reacted with the membrane at 4° C. for 12 hours, and then the membrane is washed with a wash buffer for 5 minutes three times. Thereafter, the membrane is exposed to X-ray film using an ECL reagent (Roche) to confirm protein expression levels.

[2] = system: Myh2a-positive muscle fibers; assay: Myh2a immunostaining of hind limb muscles, high fat diet (PGC-1α-inhibited) model; format: in vivo, mouse; conditions: high fat diet with 0.5% compound, 3 months
Description: To prepare the PGC-1α-inhibited model, 3-month-old mouse (female, body weight of 20 g) is fed with high fat diet, in which fat is increased to 60%, compared to a negative control group, for 5 days (short-term effect) or 3 months (long-term effect). The negative control group is fed with a general diet. Farnesol is mixed in the high fat diet at a content of 0.5% (weight of farnesol/weight of diet). A positive control group is fed with high fat diet containing a type II diabetes drug, metformin at a content of 0.5% (weight of metformin/weight of diet). Mice are fed with the general diet, the high fat diet, and the high fat diet containing farnesol or metformin for 3 months, and then hind limbs are removed to analyze muscle differentiation and mitochondrial enzyme activity.
In FIG. 6C, SD represents a standard diet as a negative control group, HFD represents a high fat diet, and HFD+Farnesol or HFD-metformin represents farnesol or metformin-added HFD, respectively.

[3] = GA muscle mass, lean mass and heart mass of mice according to farnesol administration; format: in vivo, mouse
Method: 22-month-old female mice (weighing 30 g) are fed with a control diet and a farnesol diet for 4 months. That is, 22-month-old mice are fed for 4 months, and then 26-month-old mice are analyzed.

[4] = system: fibrosis-related genes TGF-β, Col A1, collagen A3, Timp2; assay: qRT-PCR of fibrosis-related genes in injured tibialis anterior muscle; format: in vivo; conditions: old mouse, CTX injury
Method: 25-month-old mice are fed with a control diet or a farnesol-containing diet for 2 weeks, and then 2 ul of 10 uM cardiotoxin (CTX) per body weight (g) is directly injected into the muscle to induce muscle injury. After 4 days, muscles are frozen and sectioned, followed by histological staining.
In addition, expressions of fibrosis-related genes, TGF-β, Col A1, collagen A3, and Timp2 in tibialis anterior muscle are analyzed by qRT-PCR as described above.

human PGC-1α promoter = assay: Screening of compounds using PGC-1α reporter (luciferase) C2C12 cell line; format: cell-based, mouse; conditions: 10 μM, 48 hours, luciferase luminescence
[5] = system: lower limb muscles (GAS, SOL, EDL, TA); assay: Observation of lower limb muscles of mice administered with farnesol; format: in vivo, mouse; conditions: mice fed with farnesol for 5 weeks
Method: 5 month-old C57BL/6 male mice (weighing 22 g) are maintained at a temperature of 22±2° C., humidity of 55±5%, and a light-dark cycle of 12:12 hours. An animal feed containing 0.5% w/w farnesol was supplied by Jung-Ang Lab Animal Inc. A control group is fed with a feed equivalent to a general feed for experimental animals, excluding that no 0.5% w/w farnesol is contained. They are allowed free access to drinking water. Skeletal muscles were separated from the mice and control mouse fed with farnesol for 5 weeks, and subjected to immunoblot analysis. In all the following Examples, administration or feeding of mouse is performed as above, unless otherwise mentioned. […] In this specification, assuming that human life expectancy of 100 years corresponds to mouse life expectancy of 3 years, human life expectancy is estimated from the relationship. […] Herein, GAS indicates gastrocnemius muscle, SOL indicates soleus muscle, EDL indicates extensor digitorum longus muscle, and TA indicates tibialis anterior muscle. Gastrocnemius muscle exists as a white muscle because glycolytic muscle fibers are mainly distributed therein.

PARIS = assay: Immunoprecipitation analysis for PARIS in tibialis anterior muscles; format: in vivo, mouse; conditions: 4-month-old mice fed with farnesol 0, 1, 2, 3 days
Method: To examine whether farnesol increases PARIS farnesylation in muscles, immunoprecipitation of PARIS is performed in tibialis anterior muscles of 4-month-old mice (female, 22 g) fed with farnesol for a predetermined period, that is, 0, 1, 2, and 3 days. The tibialis anterior muscles which are removed from the mice fed with farnesol are mixed with a lysis buffer (10 mM Tris-HCl, pH 7.4, 150 mM NaCl, 5 mM EDTA, 1% triton X-100, 10 mM Na-β-glycerophosphate, and Complete Protease Inhibitor Mixture (Roche)), and homogenized using a Diax 900 tissue homogenizer. The tissues are left under refrigeration for 30 minutes, and centrifuged at 52,000 rpm for 20 minutes. A supernatant is used for immunoprecipitation.

[6] = 0.1-100 uM tested, from 0.1 to 10 uM, FIG. 1B
[7] = farnesol-treated myoblasts, FIG. 1A
[8] = old animal, farnesol diet 4 months

For `CC(C)=CCC/C(C)=C/CC/C(C)=C/CO` [farnesol, (2E,6E)-3,7,11-trimethyldodeca-2,6,10-trien-1-ol], the fat mass ratio [1] was “significantly decreased”, the “expression of MHC according to farnesol concentration” value (C2C12 myoblasts; [6]) was “increased in myoblasts in a farnesol concentration-dependent manner” and the “expression of PGC-1α according to farnesol concentration” value (C2C12 myoblasts; [6]) was “increased in myoblasts in a farnesol concentration-dependent manner”. For the same compound, the “expression of myogenin according to farnesol concentration” value (C2C12 myoblasts; [6]) was “increased in myoblasts in a farnesol concentration-dependent manner”, the “increase in PGC-1α gene expression compared to control group” value (C2C12 myoblasts; farnesol-treated myoblasts, 48 hours, FIG. 1A) was “about 2.8 times” and the “expression of myoblast determination protein (MyoD)” value (C2C12 myoblasts; [7]) was “increased”. The “expression of myosin heavy chain (MHC)” value (C2C12 myoblasts; [7]) was “increased”, the “expression of troponin T gene” value (C2C12 myoblasts; [7]) was “increased” and the “percentage of Myh2a-postive muscle fibers” value [2] was “significantly increases”. The GA muscle mass [3, 8] was 0.099 g, the “heart mass (versus control old animal)” value [3, 8] was 0.156 g and the lean mass [3, 8] was 15.3 g. The “side effects such as muscular hypertrophy” value ([3]; old animals, farnesol diet 4 months) was “does not cause side effects such as muscular hypertrophy”, the “heart mass (versus control young animal)” value ([3]; printed as farnesol old animal, compared with control young animal) was 0.115 g and the “expressions of fibrosis-related genes in injured tibialis anterior muscle” value [4] was “significantly reduced”. For the same compound, the “PGC-1α promoter activity relative to control group DMSO” value (human PGC-1α promoter) was “greatly increasing”, the “muscle fibers of gastrocnemius, soleus, extensor digitorum longus and tibialis anterior muscle (appearance)” value [5] was “converted to red muscles having a high percentage of oxidative muscle fibers” and the “farnesylated PARIS level in tibialis anterior muscle” value (PARIS) was “further increases”.
